For test [1], the system named is human neural crest stem cells (7SM0032). It counts as cell-based. The following applies: 72 h. How it is done: (§1) The human NB cell lines, SK-N-DZ, SK-N-BE(2)c, SK-N-AS, SK-N-SH, and SK-N-FI were obtained from the American Type Culture Collection (Rockville, MD). Cells were maintained in DMEM with 10% fetal bovine serum (FBS), 100 units/ml penicillin, and 100 µg/ml streptomycin in the presence of 5% CO2 at 37°C. Human PBMCs from a healthy donor were purchased from Sanguine BioSciences (Valencia, CA) and grown in RPMI1640 with10% FBS, 100 units/ml penicillin, 100 µg/ml streptomycin, and 10 ng/ml IL-2 in the presence of 5% CO2 at 37°C. Human embryonic progenitor cell line 7SM0032 was acquired from Millipore (Billerica, MA) and grown in the hEPM-1 Media Kit purchased from the same company.
(§2) To measure cell growth, cells were seeded at 3×10^4/ml. After being allowed to attach overnight, cells were treated with various concentrations of the peptides for 72 h. Cell growth was measured by the CellTitor-Glo assay (Promega, Madison, WI) according to manufacturer's instruction. To measure apoptosis, cells were seeded at 1×10^5/ml onto a chamber slide. Once attached, cells were treated with the peptides for 48 h. Cells were fixed and analyzed by a TUNEL assay using the TMR red in situ cell death detection kit (Roche Diagnostics, Indianapolis, IN).

The subject of test [2] is human peripheral blood mononuclear cells (PBMC). It counts as cell-based. The following applies: 72 h. How it is done:
as §1, §2

For test [3], the system named is SK-N-BE(2)c cells, DNA synthesis. Description: BrdU incorporation assay. The following applies: peptide 7.5 h then 10 µM BrdU 30 min, vs R9-srbPep, triplicates. The test is classed as cell-based, human. How it is done:
SK-N-BE(2)c cells were treated with the peptides for 7.5 h and then incubated in 10 ìmol/L BrdU for an additional 30 min in the continuous presence of the peptides. Cells were detached with trypsin and fixed in Cytofix/Cytoperm buffer according to the manufacturer's instructions (BD Bioscience, San Jose, CA). Fixed cells were treated with DNase to expose incorporated BrdU and stained with FITC-conjugated anti-BrdU antibody (BD Bioscience) for 1 h at room temperature. Samples were analyzed by flow cytometry to quantify the amount of BrdU incorporation. Percentages of FITC-positive cells were determined by analysis with the FlowJo software. Statistical analysis was conducted using a two-tailed t-test.
On the technique in general: Incorporation of labelled thymidine or its analogues reports DNA synthesis.

Test [4] deals with HR-mediated DSB repair, U2OS-derived DR-GFP cells. Description: DSB repair reporter assay, HR (DR-GFP). The following applies: 30 µM, GFP-positive cells 3 d after I-SceI transfection, normalized to R9-srbPep, triplicates. It counts as cell-based. How it is done:
The plasmid pCBASce expresses the rare cutting I-SceI meganuclease. The U2OS-derived cell lines, DR-GFP, EJ5-GFP, and SA-GFP contain a stably transfected reporter gene for DSB repair mediated by HR, end joining (EJ), and single-strand annealing (SSA), respectively. These cell lines were cultured in DMEM medium with 10% FBS at 37°C in the presence of 5% CO2.
DR-GFP, EJ5-GFP, and SA-GFP cell lines were seeded at 2.5×10^4 cells/cm^2 in a 12-well plate. Once attached overnight, cells were transfected with 1.2 µg of the pCBASce I-SceI expression plasmid mixed with 3.6 µl of Lipofectamine 2000 (Invitrogen) in 200 µl of Optimem media (Invitrogen). After incubation for 3 h, the media containing transfection complexes was aspirated and replaced with fresh media containing 30 µM of the peptides. The HR, EJ, and SSA-mediated DSB repair, indicated by the restoration of a functional GFP gene in the respective cell lines, were quantified by measuring the relative abundance of GFP-positive cells by flow cytometry 3 d after transfection.
(Reporter assays use an easily measured gene product as a stand-in for the process of interest.)

Test [5] deals with xenograft tumors derived from the SK-N-BE2(c) cells. The test is described as follows: SK-N-BE(2)c xenograft tumor model in nude mice. It counts as in vivo, mouse. The following applies: n = 10/group, intratumoral injection 3 times a week, vs PBS or R9-srbPep. How it is done: All experiments involving live animals were carried out in strict accordance with the recommendations in the Guide for the Care and Use of Laboratory Animals of the National Institutes of Health. The protocol (#11034) was reviewed and approved by the City of Hope Institutional Animal Care and Use Committee. Nude mice 6 weeks of age were purchased from the Jackson Laboratory (Bar Harbor, ME). SK-N-BE(2)c cells were harvested and washed twice in PBS. Cells were suspended in Matrigel (BD Biosciences) at 5×10^7/ml. 0.1 ml of suspended cells was subcutaneously injected into the right flank of each of 30 nude mice. Seven days after tumor inoculation, mice were randomly grouped into three groups with 10 mice in each group. The mice were treated with PBS, R9-srbPep, or R9-caPep 3 times a week by intratumoral injection. Tumor growth was measured weekly as well as at the end of the experiment by a dial caliper. Tumor volumes were estimated based on the length (L) and width (W) of the tumors (V = L×W^2×0.5). At the end of the experiment, tumors were isolated from sacrificed mice and their masses were measured.

Broadly, the IC50 is the concentration needed to halve the response being measured.

Where a SMILES comes first, the peptide text is derived from it. [ ]: non-standard residue; d: D form. Where only a bound is given, the exact number is not on record here.

As for `CC[C@H](C)[C@H](NC(=O)CNC(=O)[C@H](CC(C)C)NC(=O)[C@H](CS)NC(=O)[C@H](CS)NC(=O)[C@@H](CCCNC(=N)N)NC(=O)[C@@H](CCCNC(=N)N)NC(=O)[C@@H](CCCNC(=N)N)NC(=O)[C@@H](CCCNC(=N)N)NC(=O)[C@@H](CCCNC(=N)N)NC(=O)[C@@H](CCCNC(=N)N)NC(=O)[C@@H](CCCNC(=N)N)NC(=O)[C@@H](CCCNC(=N)N)NC(=O)[C@H](N)CCCNC(=N)N)C(=O)N1CCC[C@H]1C(=O)N[C@@H](CCC(=O)O)C(=O)N[C@@H](CCC(N)=O)C(=O)N[C@@H](CCC(=O)O)C(=O)N[C@@H](Cc1ccc(O)cc1)C(=O)O` [R9-caPep] (H-[dR][dR][dR][dR][dR][dR][dR][dR][dR]CCLGIPEQEY-OH; N-terminus and C-terminus assumed), the IC50 in test [1] was greater than 100 µM; in test [2], 98 µM. Besides, in test [3], the “percentage of BrdU-positive cells” value is “significant reduction in the percentage of BrdU-positive cells”. Also, in test [4], the “HR-mediated DNA repair” value was “significantly inhibited HR-mediated DNA repair”. The “tumor growth (tumor mass)” value in test [5] (end of experiment) was “significantly and nearly completely inhibited tumor growth”. For the same compound, in test [5] (** p<0.01), the “tumor growth (tumor volume)” value was “significantly and nearly completely inhibited tumor growth”.

The record behind these values is publication PMC3984256, “A PCNA-Derived Cell Permeable Peptide Selectively Inhibits Neuroblastoma Cell Growth” (PLoS ONE, 2014).
